From article PMC12257073 (Cancer Research Communications, 2025)
Values joined by “and” are separate entries in the source; they are usually repeats but may differ in a detail not shown here. Equal entries are not always repeated. Where two headings read alike, the source gives them in different places.

Tests used:
[1] = system: newly diagnosed AML with mutations in TP53 and/or complex karyotype; assay: Overall survival and duration of response (Kaplan–Meier); type: in vivo, human; conditions: for Response duration: No. of events / Response duration: median (95% CI): patients who achieved CR/CRh/CRi
Protocol: Demographics were summarized by descriptive statistics. Duration of response was calculated from the date when composite CR was achieved to […], censoring patients who remained alive and relapse-free at the time of the last follow-up. OS was calculated from treatment start to all-cause death, censoring patients who were alive at the time of the last follow-up. Kaplan–Meier methodology was used to assess OS and duration of response.

[2] = Plasma pharmacokinetics of TP-0903 and metabolites (LC-MS/MS, noncompartmental analysis); type: in vivo, human; conditions: for Pre-treatment trough / Cmax / Tmax / AUC(0-t) / concentration at 24 h: median (range); for Cmax / Tmax / AUC(0-t) / concentration at 24 h: human, plasma, oral; for AUC(0-t): read-out: AUC0-24h; for concentration at 24 h: read-out: C24h trough
Protocol: On days 1 and 10 of cycle 1, plasma samples were collected for PK analysis from a total of 25 patients. In the phase 1b study portion of the study, plasma was collected before administration of TP-0903 on day 10 and at 0.5, 1, 2, 4, 8, and 24 hours after administration of TP-0903 on days 1 and 10. In the phase 2 portion of the study, plasma was collected at 2, 4, and 24 hours after drug administration. A validated ultrahigh-performance LC-MS/MS method was developed and used to quantify TP-0903 and its four major metabolites (M2, M3, M4, and M6) in plasma.
TP-0903 and its metabolites M2, M3, M4, and M6 were quantified in plasma using solid phase extraction and LC-MS/MS in the Ohio State University Comprehensive Cancer Center Pharmacoanalytical Shared Resource. See Supplementary Methods for details.
Sample preparation comprised 200 µL of K2EDTA plasma sample combined with 5 µL of 150 ng/mL internal standard mixture (TP-0903-d8 (NSN23293), M2-d8 (NSN23290), M3-d8 (NSN23292), M4-d8 (NSN23291), and M6-d8 (NSN23296)), 50 µL deionized (DI) water, and 50 µL of methanol in the wells of a 2-mL 96-well plate. Reference standards for TP-0903 (ditartrate salt), metabolites, and internal standards were obtained from Sumitomo Pharma America, Inc. (formerly Sumitomo Pharma Oncology, Inc.). Sample preparation was followed by shaking at 500 rpm for 5 minutes at room temperature and the addition of 1 mL of 0.1M sodium carbonate (791768-500G). After centrifugation at 3095 rcf for 10 minutes, 1 mL of supernatant was loaded onto a conditioned 30 mg HLB SPE plate (conditioning included 1 mL methanol flow through followed by 1 mL water flow through). After samples were loaded and passed through the SPE plate using a vacuum, the plate was washed with 1 mL DI water. Once the water passed through, analyte elution was done by loading 1 mL 2% formic acid in methanol, followed by drying with N2 gas heated to 40 °C. Once dried, they were resuspended with 100 µL reconstitution solution (22% acetonitrile, 22% methanol, 56% DI water, 0.5 mM ammonium acetate, and 0.2% formic acid). The chromatographic method utilized a gradient elution with mobile phase A (MPA; 15% acetonitrile, 15% methanol, 70% DI water, 0.5 mM ammonium acetate, and 0.2% formic acid) and mobile phase B (MPB; 45% acetonitrile, 45% methanol, 10% DI water, 0.5 mM ammonium acetate (09689-100G), and 0.2% formic acid (F0441-32)). The flow rate begins at 0.4 mL/min with 25% MPB, at 2.5 min the flow rate increased to 0.6 mL/min, at 5.5 minutes the %MPB increased to 100%, at 7.01 min the flow rate and %MPB decreased to 0.4 mL/min and 25%, respectively, until the end of the run. This method was run using an ACE Excel SuperC18 (3.0 x 75 mm, 5 µm, 90Å) column (EXL-1211-7503) with a ThermoFisher Scientific Vanquish™ – ThermoFisher Scientific (SCR_025713) TSQ Altis LC-MS/MS system (TSQ02-10002). The analytes and internal standards were evaluated in positive mode with the transitions monitored including M2 488.12->402.125, M2-d8 496.25->402.095, M3 502.2->402.113, M3-d8 510.2->402.113, M4 502.138->416.125, M4-d8 510.188->416.125, M6 518.112->402, M6-d8 526.2->402.113, and TP-0903 516.2->416.125, TP-0903-d8 524.237->416.125. […] Three quality control samples (QC Low, QC Medium, and QC High) were monitored during sample analyses to ensure the accuracy of assay quantitation. Additionally, a validation was performed that included the evaluation of selectivity, matrix effects, sensitivity, carry-over, freeze-thaw stability, processed sample stability, recovery, and dilution integrity (20X and 10X). Intra- and inter- day accuracy and precision of the calibrators and quality control samples, which also included the LLOQ for each analyte, was evaluated over 3 days. The quality control samples concentrations were continually monitored by statistical analysis of runs using Westgard rules (13s, 22s, R4s, and 10x) and adherence to FDA guidance of being within 15% except at the LLOQ of being within 20%. […]

[3] = TP53-mutated patients, TP-0903 + decitabine, n = 20
[4] = TP53-mutated patients, TP-0903 + decitabine
[5] = group 1, TP-0903 37 mg/day + decitabine, n = 15
[6] = group 1, TP-0903 37 mg/day + decitabine
[7] = group 2, TP-0903 25 mg/day + decitabine, n = 12
[8] = group 2, TP-0903 25 mg/day + decitabine
[9] = overall, TP-0903 + decitabine, n = 27
[10] = TP-0903 dose 25mg, Day 10 of course 1, plasma
[11] = TP-0903 dose 37 mg, Day 10 of course 1, plasma
[12] = 25 mg, TP-0903 dose 25mg, Day 1 of course 1, plasma
[13] = 25 mg, TP-0903 dose 25mg, Day 10 of course 1, plasma
[14] = 37 mg, TP-0903 dose 37 mg, Day 1 of course 1, plasma
[15] = 37 mg, TP-0903 dose 37 mg, Day 10 of course 1, plasma

CN1CCN(Cc2ccc(Nc3ncc(Cl)c(Nc4ccccc4S(=O)(=O)N(C)C)n3)cc2)CC1.O=C(O)C(O)C(O)C(=O)O.O=C(O)C(O)C(O)C(=O)O [TP-0903, 2-(5-chloro-2-(4-((4-methylpiperazin-1-yl)methyl)phenylamino)pyrimidin-4-yl)amino-N,N-dimethylbenzene-1-sulfonamide di-tartrate salt]
OS: No. of events (deaths) [1, 3]: 13
OS: median (95% CI) [1, 3]: 10.0 (2.0–20.6) months
Response duration: No. of events [1, 4]: 6
Response duration: median (95% CI) [1, 4]: 10.6 (3.3–NE) months
OS: No. of events (deaths) [1, 5]: 10
OS: median (95% CI) [1, 5]: 7.6 (2.0–20.6) months
Response duration: No. of events [1, 6]: 3
Response duration: median (95% CI) [1, 6]: 13.8 months and 13.8 (7.3–NE) months
OS: No. of events (deaths) [1, 7]: 7
OS: median (95% CI) [1, 7]: 7.5 months and 7.5 (1.1 – NE) months
Response duration: No. of events [1, 8]: 5
Response duration: median (95% CI) [1, 8]: 4.6 months and 4.6 (1.8–NE) months
OS: No. of events (deaths) [1, 9]: 17
OS: median (95% CI) [1, 9]: 7.6 (3.3–13.4) months
Response duration: No. of events ([1]; overall, TP-0903 + decitabine): 8
Response duration: median (95% CI) ([1]; overall, TP-0903 + decitabine): 7.3 (3.3–13.8) months
Steady-state TP-0903 plasma exposure (Css Min on Day 10), responders vs non-responders ([2]; Supplementary Fig. S3A): no significant difference
Decrease in absolute neutrophil count or platelets in patients with steady-state plasma exposure above the median ([2]; Supplementary Fig. S3B, S3C): did not have a greater decrease
Pre-treatment trough [2, 10]: 7.1 (3.3-17) ng/mL
Pre-treatment trough [2, 11]: 5.3 (1.0-21) ng/mL
Drug accumulation ratio ([2]; based on the median AUC, day 10 vs day 1, both groups): six
Variation in the steady-state Cmax of parent TP-0903 ([2]; both groups (37 mg and 25 mg)): > 25 fold
Cmax [2, 12]: 2.4 ng/mL
Tmax [2, 12]: 2.8 h
AUC(0-t) ([2]; 25 mg, TP-0903 dose 25mg, Day 1 of course 1, plasma, N=11): 42 ng·h/mL
Cmax [2, 13]: 14 ng/mL
Tmax [2, 13]: 3.5 h
AUC(0-t) ([2]; 25 mg, TP-0903 dose 25mg, Day 10 of course 1, plasma, N=8): 260 ng·h/mL
Cmax [2, 14]: 3.3 ng/mL
Tmax [2, 14]: 2.1 h
AUC(0-t) ([2]; 37 mg, TP-0903 dose 37 mg, Day 1 of course 1, plasma, N=10): 36 ng·h/mL
Cmax [2, 15]: 13 ng/mL
Tmax [2, 15]: 3.9 h
AUC(0-t) ([2]; 37 mg, TP-0903 dose 37 mg, Day 10 of course 1, plasma, N=9): 210 ng·h/mL
concentration at 24 h ([2]; TP-0903 dose 25mg, Day 1 of course 1, plasma): 1.9 ng/mL
concentration at 24 h [2, 10]: 8.1 ng/mL
concentration at 24 h ([2]; TP-0903 dose 37 mg, Day 1 of course 1, plasma): 0.7 ng/mL
concentration at 24 h [2, 11]: 5.8 ng/mL
